Results taken from US20130315920A1, “Cross Protective Epitopes of Aspergillus Fumigatus and Candida Albicans” (Cell Medica Limited, priority 2010, published 2013).

Key:
[1] = system: T-cell lines of 7 donors with different MHC class II alleles; test: Epitope mapping of Crf1 peptides with IFN-γ ELISPOT; assay type: cell-based, human; settings: 7 donors tested, peptide-pulsed autologous DC
Text: As the identification of potential protective fungal antigens is rather intricate due to the extensiveness of fungal genomes, we analyzed 6 different A. fumigatus recombinant proteins based on their previously reported immunogeneic reactivity in mice and humans^7,10. […] By contrast, GPI-anchored extracellular cell wall glucanase Crf1 and secreted protein peptidase induced high IFN-γ in 6 of 7 and 5 of 10 tested donors, respectively. The response was mediated by CD4^+ TH1 cells, as MHC class II blocking antibody nearly abrogated IFN-γ release (data not shown). Due to the broad response and the sequence similarity to the C. albicans orthologue Crh1, we focused in subsequent experiments on the protein Crf1. By epitope mapping of 7 healthy individuals with different MHC class II alleles, we identified 10 potential candidate epitopes (Table 1). Based on the results obtained by epitope mapping, the probability of antigen presentation by certain MHC class II alleles assessed by epitope prediction^11, previously reported immunogeneic reactivity^12 and sequence similarity to the C. albicans homologue Crh1, we then generated CD4^+ TH1 T-cell clones specific for the peptides p1, p22, p27, p41, p48, p59, p69 and p84 (FIG. 1a and Table 1).
A peptide library covering the complete Crf1 sequence consisting of 94 15-mer peptides overlapping by […] (aa) was divided into sub-pools of 10 peptides and 94 single peptides (p1-p94) (PANATecs). 3 11-mer peptides of p40/41 overlapping by 2aa ([…], […], HTYTIDWTKDA) were obtained from JPT Peptide Technologies.
For analysis of recombinant proteins and epitope mapping, T-cell lines were generated by incubation of 1×10^7 PBMC per well in 6-well cell culture plates with 5 μg/ml protein or peptide for 7d in the presence of 5 U/ml IL-2 (Proleukin, Chiron). Antigen specificity was analyzed by IFN-γ ELISA^42 after restimulation with autologous monocytes incubated overnight with 5 μg/ml protein in a responder to stimulator (R:S) ratio of 5:1. Epitope mapping was performed by IFN-γ ELISPOT^39 after stimulation with peptide-pulsed autologous DC at a R:S ratio of 10:1.

[2] = system: C. albicans; test: Peptide-specific T-cell clones stimulated with inactivated C. albicans yeast; assay type: cell-based, Candida albicans
Text: A. fumigatus Crf1 p41-specific T-cell clones are cross-reactive to C. albicans and can be activated by different clinical isolates of both fungi. (a) All A. fumigatus Crf1 p41-specific T-cell clones from different donors respond to stimulation with inactivated C. albicans yeast. IFN-γ values are given after subtraction of the negative control. Shown is 1 clone per antigen and donor (representative experiments, n≧3). (b) A. fumigatus Crf1 p41-specific T-cell clones respond to different inactivated clinical isolates of germinating A. fumigatus conidia and C. albicans yeast.
T-cell cloning was performed as described in below. T-cell clones were stimulated either with mature peptide-pulsed (2.5 μg/ml) or Crf1 mRNA-transfected DC, immature DC incubated for 24 h with A. fumigatus cell extract (20 μg/ml) in the presence of cytokine maturation cocktail or immature DC incubated for 24 h with inactivated A. fumigatus or C. albicans fungus (multiplicity of infection 3) in a R:S ratio of 5:1.
Fungal extracts were generated as described^48 and protein content was measured by Bradford protein assay (Perbio Science) according to the manufacturers' instructions. For inactivated fungus Aspergillus conidia were inoculated in growth medium^49 and cultured for 0, 4, 8 or 12 h. Candida species were cultured for 24 h. Fungi were inactivated with 70% ethanol. Ethanol-inactivated fungi and extracts were validated for sterility by subculturing on Sabouraud dextrose agar.

[3] = system: HLA-DRB1*03; test: HLA restriction with peptide-pulsed partially matched LCL (IFN-γ ELISA); assay type: cell-based, human; settings: 10^−3 to 1 ug/ml peptide
Protocol: (§1) To evaluate the utility of the Crf1 p41 epitope for potential clinical application, we defined the HLA restriction of Crf1 p41-specific CD4^+ T clones from different donors by stimulation with peptide-pulsed partially matched LCLs. […] As presentation of the Crf1 p41 peptide could also be mediated by other MHC class II alleles, we verified the HLA restriction by stimulation of PBMC from additional donors.
HLA restriction was analyzed with partially matched allogeneic EBV-lymphoblastoid cell lines (LCL) (provided by Patricia Comoli and Inge Jedema) pulsed with 10^−3 to 1 ug/ml peptide using IFN-γ ELISA.

[4] = system: PBMC from additional donors; test: Verification of HLA restriction by stimulation of PBMC from additional donors; assay type: cell-based, human; settings: data not shown
Text: as §1

[5] = system: PBMC; test: In vitro expansion of Crf1 p41-specific T-cell lines from PBMC; assay type: cell-based, human
Protocol: Cross-reactive Crf1 p41-specific T-cells show a diverse T-cell receptor (TCR) Vβ repertoire, multiple MHC class II restriction and high proliferative capacity. (a) The TCR Vβ repertoire of p41-specific CD4^+ T-cell clones is divers in different donors. TCR chains were determined by flowcytometry, PCR and/or nucleotide sequence analysis. *TCRs differ on the level of nucleotide sequence. Nomenclature is according to Wei et al^53. (b) The Crf1 p41 epitope can be presented by HLA-DRB1*03, 04 and 13 and allows cross-recognition between HLA-DRB1*03 and 13. The HLA restriction of Crf1 p41-specific T-cell clones from 5 different donors was determined by stimulation with peptide-pulsed unmatched or partially matched LCL. IFN-γ values are given after subtraction of the negative control. (c) Crf1 p41-specific T-cells are not terminally differentiated and can be rapidly expanded in vitro. […] T-cells were restimulated with autologous peptide-pulsed monocytes on day 7 and culture medium was supplemented with IL-2, IL-7 and IL-15 (representative experiments, n≧3).
For T-cell expansion, 1×10^7 PBMC were stimulated with 5 μg/ml peptide in the presence of 5 U/ml IL-2. On d7, T-cells were restimulated with autologous peptide-pulsed monocytes at a R:S ratio of 5:1 and 10 ng/ml IL-7 and IL-15 (R&D systems) were supplemented every other day until d14.
The TCR Vβ repertoire was analyzed flowcytometrically (IOTest Beta Mark Kit, Beckman Coulter), by PCR^43 and sequence analysis^44. A PE-conjugated Crf1 p41-specific HLA-DRB1*0401 MHC class II tetramer was used according to the manufacturers' instructions (Beckman Coulter).

HTYTIDWTKDAVTWS (Peptide found in the Crf1 protein of Aspergillus fumigatus) [p41, Crf1 aa 161-175]
No. of responders [1]: 5 | Cross-reactivity with different clinical isolates of A. fumigatus and C. albicans ([2]; clinical isolates): could further confirm this cross-reactivity of the Crf1 p41 epitope | Cross-reactivity of peptide-specific T-cell clones to C. albicans ([2]; inactivated C. albicans yeast, established strain): All p41-specific T-cell clones of all donors recognized and responded to C. albicans | Presentation / binding by HLA-DRB1*03 [3]: presentation of the Crf1 p41 is mediated by HLA-DRB1*03, 04 and 13 | Presentation / binding by HLA-DRB1*03 ([3]; listed as HTYTIDWTKDAVTWS): has been shown to bind to HLA-DRB1*03, HLA-DRB1*13 and HLA-DRB1*04 | Reaction of PBMC to the epitope ([4]; 5 donors lacking HLA-DRB1*03, 04 and 13): all 5 donors lacking HLA-DRB1*03, 04 and 13 MHC class II alleles did not | Reaction of PBMC to the epitope ([4]; HLA-DRB1*03, 04 and 13 donors): All HLA-DRB1*03, 04 and 13 donors reacted to the Crf1 p41 epitope | Frequency of antigen-specific cells by HLA-DRB1*04 restricted tetramer (median) ([5]; after 14 days expansion): 50.6% | Frequency of antigen-specific cells by HLA-DRB1*04 restricted tetramer (range) ([5]; after 14 days expansion): 42-63% | Cell number after expansion (median) ([5]; from 10^7 PBMC within 14 days): 3.5×10^7 cells | Cell number after expansion (range) ([5]; from 10^7 PBMC within 14 days): 3−4.9×10^7 cells | Cytokine production and proliferation of expanded T-cell lines ([5]; upon antigen stimulation): produced high amounts of TH1 cytokines and proliferated upon antigen stimulation
